Measurements taken from patent US10064804B2, “Polymeric nitrones and their use in personal care” (Dow Global Technologies LLC, priority 2014, dated 2018).

test: Oxygen Radical Absorbance Capacity (ORAC) antioxidant potential; conditions: ORAC test, test solutions at 100 micromolar; calculated from ORAC values relative to Trolox
Method: Antioxidant potential is evaluated using the Oxygen Radical Absorbance Capacity (ORAC) protocol. ORAC is a chemical in-vitro method based on the hydrogen atom transfer (HAT) mechanism (see N. Re et al., Free Radical Biology & Medicine, 26 (9/10), 1231 (1997)). ORAC measures antioxidant inhibition of peroxyl radical induced oxidations and thus reflects classical radical chain breaking antioxidant activity by H atom transfer. In this assay, the peroxyl radical reacts with a fluorescent probe to form a non-fluorescent product. This is quantitated using a fluorescence measurement. Antioxidant capacity is determined by decreased rate and amount of product formed over time. This assay depends upon the free radical damage to the fluorescent probe resulting in the change in its fluorescence intensity. The change of fluorescence intensity is an indicator of the degree of free radical damage. In the presence of an antioxidant, the inhibition of free radical damage is reflected in higher fluorescence intensity and can be measured as antioxidant capacity against the free radicals. The uniqueness of ORAC assay is that the reaction is driven to completion. This allows calculation of the area under the curve (AUC) and gives an absolute quantitation of antioxidancy as opposed to relative measurements in many other assays.
As noted, the longer it takes to observe a decrease in fluorescence, the higher the antioxidant (AO) potential. From the AUC for a given antioxidant, the AUC for blank is subtracted to give its ORAC value. The concentration of AO needed to give the same AUC values as Trolox is calculated and used to represent the Trolox equivalent AO Capacity (TEAC). Trolox is ((±)-6-Hydroxy-2,5,7,8-tetramethylchromane-2-carboxylic acid, CAS #53188-07-1), and is used as an internal control. […]
The inventive stilbene-pendant nitrones in the ORAC test solutions were at a concentration of 100 micromolar, while the concentrations of Trolox, Vitamin C, Vitamin E, BHT, PBN+BHT, and VAL-IPHA were at 100 micromolar. The TEAC values calculated from the ORAC values are listed the Table 2.

Compound | TEAC (Trolox equivalent AO Capacity)
Vitamin E | 0.13
CC(C)(C)/[N+]([O-])=C/c1ccccc1 [PBN, 2-Phenyl-N-tert-butylnitrone] | not very high
O=C1O[C@H]([C@@H](O)CO)C(O)=C1O [Vitamin C] | 0.76
